Experimental data from patent publication US20070134814A1, “Methods and compositions for the detection of calcifying nano-particles, identification and quantification of associated proteins thereon, and correlation to disease” (priority 2005, published 2007).

System: freshly collected human blood
Assay: Whole blood clotting slide test
Settings: 10 μl solution added to plain glass slide before blood
From the text: The method allows for measuring changes in the clotting time induced by contact with foreign surfaces, i.e. plain glass or coated glass, and for studying the effects of drugs on the clotting induced by foreign surface.
Venous blood was collected with venipuncture from 19 random volunteers participating in CNP epidemiological study (Ethical Committee Approval, Kuopio University). Volunteers signed an informed consent. Blood was collected with venipuncture in siliconized glass serum tubes, EDTA plasma tubes or citrate plasma tubes (Terumo), and was tested immediately after collection for whole blood clotting time on different test platforms.
200 μl of freshly drawn blood was added to pre-coated or plain glass slides which were put on a tilting shaker 15 tilts/minute at room temperature until formation of a solid clot was observed as “frozen droplet”. Experiments were carried out usually in triplicate to determine reproducibility of tests. CV % for the triplicate tests were less than 6.81% (CNP-coated slide, n=13), 8.79% (apatite-coated slide, n=15) and 10.37% (non-treated control slide, n=15). Clotting time results were analyzed by Bonferroni (Dunn) t Test (Table 1).
Therefore, to study the effects of apatite on clotting, a whole blood clotting slide test was developed. […]

SMILES | effect on clotting time
O=C([O-])CN(CCN(CC(=O)[O-])CC(=O)[O-])CC(=O)[O-].[Ca+2].[Na+].[Na+] [Calcium EDTA] | did not affect the clotting time
CC(O)(P(=O)(O)O)P(=O)(O)O [etidronate] | did not affect the clotting time
